Data on 5 molecules can be found in patent publication US20180148418A1, “AMIDO-SUBSTITUTED CYCLOHEXANE DERIVATIVES” (Bayer Pharma Aktiengesellschaft, priority 2015, published 2018).

Structures can show the parent of a compound that is named as a salt.

For test [1], the target named is T1, TNKS1 (Homo sapiens, UniProt O95271).
T1 construct: purchased BPS Bioscience, San Diego, USA 80579 (TNKS1 Histone Ribosylation Assay Kit)
T1 sequence (O95271 1-1327): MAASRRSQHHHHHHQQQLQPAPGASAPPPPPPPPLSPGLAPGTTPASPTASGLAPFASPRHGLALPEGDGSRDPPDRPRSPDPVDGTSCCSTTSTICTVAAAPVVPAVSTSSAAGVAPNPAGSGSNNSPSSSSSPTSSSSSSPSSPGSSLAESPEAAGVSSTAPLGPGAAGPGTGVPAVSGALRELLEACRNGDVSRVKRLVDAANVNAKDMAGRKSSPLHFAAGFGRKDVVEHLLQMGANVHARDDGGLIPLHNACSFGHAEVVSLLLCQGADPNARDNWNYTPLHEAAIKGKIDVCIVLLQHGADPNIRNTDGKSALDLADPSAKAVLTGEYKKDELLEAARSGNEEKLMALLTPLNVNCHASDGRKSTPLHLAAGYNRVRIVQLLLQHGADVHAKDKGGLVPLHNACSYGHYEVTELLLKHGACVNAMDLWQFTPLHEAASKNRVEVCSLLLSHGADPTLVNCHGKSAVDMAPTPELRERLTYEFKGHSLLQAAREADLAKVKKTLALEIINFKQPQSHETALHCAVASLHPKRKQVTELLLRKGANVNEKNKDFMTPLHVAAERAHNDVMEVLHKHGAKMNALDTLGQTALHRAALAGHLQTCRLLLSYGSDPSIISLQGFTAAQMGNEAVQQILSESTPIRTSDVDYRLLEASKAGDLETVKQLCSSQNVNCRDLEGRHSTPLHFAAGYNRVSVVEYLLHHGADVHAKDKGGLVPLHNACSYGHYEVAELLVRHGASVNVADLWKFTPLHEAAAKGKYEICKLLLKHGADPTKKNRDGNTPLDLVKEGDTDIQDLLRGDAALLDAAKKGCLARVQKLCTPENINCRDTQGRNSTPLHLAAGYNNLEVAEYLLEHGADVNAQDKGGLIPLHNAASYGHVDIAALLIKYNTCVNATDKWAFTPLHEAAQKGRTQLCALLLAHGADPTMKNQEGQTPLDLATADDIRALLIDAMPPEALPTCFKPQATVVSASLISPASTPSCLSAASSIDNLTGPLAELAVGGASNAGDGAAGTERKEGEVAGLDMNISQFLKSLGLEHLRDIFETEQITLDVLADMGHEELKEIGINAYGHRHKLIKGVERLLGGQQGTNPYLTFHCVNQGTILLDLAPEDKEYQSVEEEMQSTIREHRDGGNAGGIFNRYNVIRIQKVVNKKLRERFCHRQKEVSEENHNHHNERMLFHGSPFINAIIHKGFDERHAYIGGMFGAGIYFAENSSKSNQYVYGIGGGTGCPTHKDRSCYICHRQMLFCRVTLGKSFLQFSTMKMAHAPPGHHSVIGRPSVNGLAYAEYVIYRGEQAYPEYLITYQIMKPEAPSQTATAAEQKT
Put plainly: TNKS1 Assay B (auto-parsylation, [3H]-NAD+ SPA). Particulars: 6 nM TNKS1, auto-parsylation, over night at room temperature. In kind it is biochemical.

Test [2] relates to wildtype Wnt signaling cascade. Put plainly: HEK293 TOP assay (Super TopFlash luciferase reporter, Wnt-3a stimulated). The settings on record: Homo sapiens, HEK293 TOP reporter cells, Wnt3a at EC50, 16 hours. In kind it is cell-based. The gist of the method: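 Compound series (50 μM down to 15 nM, 3.16-fold) diluted from DMSO 50-fold into CAFTY buffer, pH 7.4, 2 mM Ca^2+, 0.01% BSA, applied to Wnt-3a-stimulated HEK293 TopFlash and FOP reporter lines in parallel. Cells seeded 10000/well 24 h before; luciferase signal measured.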
A general note: A reporter such as luciferase makes a cellular process visible.

`CNC(=O)c1[nH]cnc1C(=O)NC1CCC(C(=O)Nc2ccc(F)cc2Cl)CC1C` (racemic) [Example 39, N^4-{4-[(2-chloro-4-fluorophenyl)carbamoyl]-2-methylcyclohexyl}-N^5-methyl-1H-imidazole-4,5-dicarboxamide]: the IC50 in test [1] is 380 nM. For `Cc1c(C(C)N(C)C)cnc2c(C(=O)N[C@H]3CC[C@H](C(=O)Nc4ccc(F)cc4Cl)CC3)cnn12` (mixture of isomers) [Example 55, N-{trans-4-[(2-chloro-4-fluorophenyl)carbamoyl]cyclohexyl}-6-[1-(dimethylamino)ethyl]-7-methylpyrazolo[1,5-a]pyrimidine-3-carboxamide formic acid salt], the half-inhibitory concentration (IC50) in test [1] stood at 740 nM; in test [2], 280 nM.

Take `O=C(NCCN1CCCCC1)c1nc[nH]c1C(=O)N[C@H]1CC[C@H](C(=O)Nc2ccc(F)cc2Cl)CC1` [Example 2, N^5-{trans-4-[(2-chloro-4-fluorophenyl)carbamoyl]cyclohexyl}-N^4-[2-(piperidin-1-yl)ethyl]-1H-imidazole-4,5-dicarboxamide]: the 50% inhibitory concentration (IC50) was found to be 550 nM in test [1] and 25 nM in test [2] (HEK293, 16 h). On to `CNC(C)c1cnc2c(C(=O)N[C@H]3CC[C@H](C(=O)Nc4ccc(F)cc4Cl)CC3)cnn2c1C` (stereo partly drawn) [Example 54, N-{trans-4-[(2-chloro-4-fluorophenyl)carbamoyl]cyclohexyl}-7-methyl-6-[1-(methylamino)ethyl]pyrazolo[1,5-a]pyrimidine-3-carboxamide formic acid salt], for which the 50% inhibitory concentration (IC50) was 460 nM in test [1] and 620 nM in test [2]. For the molecule `COCC(C)NC(=O)c1nc[nH]c1C(=O)N[C@H]1CC[C@H](C(=O)Nc2cc(N3CCOCC3)ccc2Cl)CC1` (stereo partly drawn) [Example 91, N^5-(trans-4-{[2-chloro-5-(morpholin-4-yl)phenyl]carbamoyl}cyclohexyl)-N^4-(1-methoxypropan-2-yl)-1H-imidazole-4,5-dicarboxamide], the half-inhibitory concentration (IC50) in test [1] came out at 2800 nM; in test [2] (HEK293, 16 h), 1800 nM.

As a reminder, the IC50 is the midpoint of a concentration-inhibition curve.
